Laboratory results from patent US11242337B2, “Compounds useful for treating gastrointestinal tract disorders” (Ardelyx, Inc., priority 2017, dated 2022).

What was measured:
[1] = system: absorption of sodium from the intestinal lumen; assay: Inhibition of intestinal sodium absorption in rats; format: in vivo, Sprague Dawley rats; settings: 13-hours post-dose; for response vs control in vivo at 0.03 mg/kg: oral gavage 0.03 mg/kg; for response vs control in vivo at 0.1 mg/kg: oral gavage 0.1 mg/kg; for FFS (1-5): rats, group median fecal form score, 1 normal pellet to 5 liquid fecal streams; for response vs control in vivo at 0.3 mg/kg: oral gavage 0.3 mg/kg
Description: Urinary sodium excretion and fecal form were measured to assess the ability of selected example compounds to inhibit the absorption of sodium from the intestinal lumen. Eight-week old, male, Sprague Dawley rats were purchased from Envigo (Livermore, Calif.), were housed 2 per cage and acclimated for at least 48 hours before study initiation. Animals were fed. Harlan Teklad Global TD.160470 rodent chow (Madison, Wis.), standard laboratory rodent chow Harlan Teklad Global 2018 with the addition of 0.4% inorganic phosphorous. Animals had ad libitum access to food and water for the duration of the study and were maintained in a temperature and humidity controlled room on a standard light/dark cycle of 6 AM to 6 PM. On the day of study initiation, rats (n=5/group) were dosed by oral gavage with test compound or vehicle (3 mM HCl, 0.01% Tween80) at a dose volume of […]. Immediately after dose administration animals were placed in individual metabolic cages. At 13-hours post-dose, urine samples were collected and fecal form was assessed. In addition, the weight of food consumed over the 13-hour period was measured and recorded. Fecal forms were scored according to a common scale associated with increasing fecal water to the wettest observation in the cage's collection funnel (1, normal pellet; 2, pellet adhering to sides of collection funnel due to moisture; 3, loss of normal pellet shape; 4, complete loss of shape with a blotting pattern; 5, liquid fecal streams evident). Fecal form score (FFS) was calculated for each group as the median of each individual rat's FFS within the group and reported in Table 7. Fecal samples were dried using a lyophilizer for at least 3 days, following which dry weight was recorded and fecal fluid content was calculated based on the difference between the wet and dry stool weights. Fecal fluid content was calculated as a change from the vehicle group mean. For urine samples, the volumes were determined gravimetrically. Urine samples were analyzed on an ion chromatography system (Thermo Fisher ICS-3000 or ICS-5000+) coupled with conductivity detectors. Chromatographic separation of cations was performed using an IonPac CS12A (Thermo Fisher) 2×250 mm analytical column with an isocratic elution using 25 mM methanesulfonic acid. Concentrations were interpolated from a standard curve (prepared in 10 mM HCl) for sodium based on retention time and peak area. Thirteen-s-hour urinary sodium excretion (mg/13-hours) was calculated by multiplying urinary sodium concentration by 13-hour urine volume. The urinary sodium excretion of compound treatment was normalized to dietary sodium intake and expressed as a percentage of the vehicle mean.

gastrointestinal transit = assay: Restoration of gastrointestinal motility in opioid induced constipation (loperamide); format: in vivo, mice; settings: loperamide s.c., Evans Blue small intestinal transit 30 minutes
Description: Approximately eight-week old, female, CD1 […] are purchased from Envigo (Livermore, Calif.), are housed 4 per cage and acclimated for at least 48 hours before study initiation. Animals are fed standard laboratory rodent chow Harlan Teklad Global 2018 (Madison, Wis.). Animals have ad libitum access to food and water for the duration of the acclimation period and are maintained in a temperature and humidity controlled room on a standard light/dark cycle of 6 AM to 6 PM. Following an overnight fast, with free access to water, animals are dosed by oral gavage with varying doses of test compound or vehicle (3 mM HCl, 0.01% Tween80), at a dose volume of 5 mL/kg. […] For an individual animal, the length travels by the Evans Blue dye front is divided by the length of the whole small intestine, measured from the pylorus to the cecum, and multiplied by 100, to provide the distance of the small intestine travelled by the dye as a percentage.

[2] = Rattus norvegicus, Sprague Dawley rats, read-out: Urinary Na (% of Vehicle, out/in)

| Structure (SMILES) | response vs control in vivo at 0.003 mg/kg ([1]; Rattus norvegicus, Sprague Dawley rats, oral gavage 0.003 mg/kg, read-out: Urinary Na (% of Vehicle, out/in)) | response vs control in vivo at 0.01 mg/kg ([1]; Rattus norvegicus, Sprague Dawley rats, oral gavage 0.01 mg/kg, read-out: Urinary Na (% of Vehicle, out/in)) | response vs control in vivo at 0.03 mg/kg [1, 2] | response vs control in vivo at 0.1 mg/kg [1, 2] | FFS (1-5) ([1]; 0.003 mg/kg) | FFS (1-5) ([1]; 0.01 mg/kg) | FFS (1-5) ([1]; 0.03 mg/kg) | FFS (1-5) ([1]; 0.1 mg/kg) | % Restoration of Transit (gastrointestinal transit; oral gavage 15 mg/kg) | % Restoration of Transit (gastrointestinal transit; oral gavage 1.5 mg/kg) | % Restoration of Transit (gastrointestinal transit; oral gavage 5 mg/kg) | response vs control in vivo at 0.3 mg/kg [1, 2] | FFS (1-5) ([1]; 0.3 mg/kg) |
| --- | --- | --- | --- | --- | --- | --- | --- | --- | --- | --- | --- | --- | --- |
| N#Cc1cc(Cl)cc2c1C[C@H](N1CCNCC1)[C@H]2Oc1ccc(S(=O)(=O)NCCOCCOCCNC(=O)NCCCCNC(=O)NCCOCCOCCNS(=O)(=O)c2ccc(O[C@H]3c4cc(Cl)cc(C#N)c4C[C@@H]3N3CCNCC3)cc2)cc1 [Example 41, 3-[2-(2-[2-[(4-[[(1S,2S)-6-Chloro-4-cyano-2-(piperazin-1-yl)-2,3-dihydro-1H-inden-1-yl]oxy]benzene)sulfonamido]ethoxy]ethoxy)ethyl]-1-[4-([[2-(2-[2-[(4-[[(1S,2S)-6-chloro-4-cyano-2-(piperazin-1-yl)-2,3-dihydro-1H-inden-1-yl]oxy]benzene)sulfonamido]ethoxy]ethoxy)ethyl]carbamoyl]amino)butyl]urea; bis(trifluoroacetic acid)] | > 70% | > 70% | 40 to 70% | < 40% | 2 | 2 | 2 | 5 | A (<20%) | – | – | – | – |
| N#Cc1cc(Cl)cc2c1C[C@H](N1CCNCC1)[C@H]2Oc1ccc(S(=O)(=O)NCCOCCOCCNC(=O)NCCCCNC(=O)NCCOCCOCCNS(=O)(=O)c2ccc(O[C@H]3c4cc(Cl)cc(C#N)c4C[C@@H]3N3CCNCC3)c(F)c2)cc1F [Example 43, 3-[2-(2-[2-[(4-[[(1S,2S)-6-Chloro-4-cyano-2-(piperazin-1-yl)-2,3-dihydro-1H-inden-1-yl]oxy]-3-fluorobenzene)sulfonamido]ethoxy]ethoxy)ethyl]-1-[4-([[2-(2-[2-[(4-[[(1S,2S)-6-chloro-4-cyano-2-(piperazin-1-yl)-2,3-dihydro-1H-inden-1-yl]oxy]-3-fluorobenzene)sulfonamido]ethoxy]ethoxy)ethyl]carbamoyl]amino)butyl]urea; bis(trifluoroacetic acid)] | – | – | – | – | – | – | – | – | A (<20%) | B (20-40%) | A (<20%) | – | – |
| N#Cc1cc(Cl)cc2c1C[C@H](N1CCNCC1)[C@H]2Oc1ccc(S(=O)(=O)N[C@H]2CCN(CCOCCNC(=O)NCCCCNC(=O)NCCOCCN3CC[C@H](NS(=O)(=O)c4ccc(O[C@H]5c6cc(Cl)cc(C#N)c6C[C@@H]5N5CCNCC5)cc4)C3)C2)cc1 [Example 107, 4-([(1S,2S)-6-Chloro-4-cyano-2-(piperazin-1-yl)-2,3-dihydro-1H-inden-1-yl]oxy)-N—[(S)-1-(20-[(S)-3-([4-([(1S,2S)-6-chloro-4-cyano-2-(piperazin-1-yl)-2,3-dihydro-1H-inden-1-yl]oxy)phenyl]sulfonamido)pyrrolidin-1-yl]-7,14-dioxo-3,18-dioxa-6,8,13,15-tetraazaicosyl)pyrrolidin-3-yl]benzenesulfonamide; tetra(trifluoroacetate)] | – | – | 40 to 70% | 40 to 70% | – | – | 3 | 3 | – | – | – | < 40% | 3 |
| N#Cc1cc(Cl)cc2c1C[C@H](N1CCNCC1)[C@H]2Oc1ccc(S(=O)(=O)N2CCC(NC(=O)CCCNC(=O)NCCCCNC(=O)NCCCC(=O)NC3CCN(S(=O)(=O)c4ccc(O[C@H]5c6cc(Cl)cc(C#N)c6C[C@@H]5N5CCNCC5)cc4)CC3)CC2)cc1 [Example 120, N^1,N^18-Bis(1-([4-([(1S,2S)-6-chloro-4-cyano-2-(piperazin-1-yl)-2,3-dihydro-1H-inden-1-yl]oxy)phenyl]sulfonyl)piperidin-4-yl)-6,13-dioxo-5,7,12,14-tetraazaoctadecanediamide] | – | – | > 70% | 40 to 70% | – | – | 2 | 3 | – | – | – | < 40% | 4 |
| CN(C)[C@H]1CCCN([C@H]2Cc3c(C#N)cc(Cl)cc3[C@@H]2Oc2ccc(S(=O)(=O)NCCOCCOCCNC(=O)NCCCCNC(=O)NCCOCCOCCNS(=O)(=O)c3ccc(O[C@H]4c5cc(Cl)cc(C#N)c5C[C@@H]4N4CCC[C@H](N(C)C)C4)cc3)cc2)C1 [Example 122, 4-([(1S,2S)-6-Chloro-4-cyano-2-[(S)-3-(dimethylamino)piperidin-1-yl]-2,3-dihydro-1H-inden-1-yl]oxy)-N-[26-([4-([(1S,2S)-6-chloro-4-cyano-2-[(S)-3-(dimethylamino)piperidin-1-yl]-2,3-dihydro-1H-inden-1-yl]oxy)phenyl]sulfonamido)-10,17-dioxo-3,6,21,24-tetraoxa-9,11,16,18-tetraazahexacosyl]benzenesulfonamide] | – | – | > 70% | > 70% | – | – | 2 | 2 | – | – | – | 40 to 70% | 3 |
| C[C@@H]1CN([C@H]2Cc3c(C#N)cc(Cl)cc3[C@@H]2Oc2ccc(S(=O)(=O)N[C@@H]3CCN(CCOCCNC(=O)NCCCCNC(=O)NCCOCCN4CC[C@@H](NS(=O)(=O)c5ccc(O[C@H]6c7cc(Cl)cc(C#N)c7C[C@@H]6N6CCN[C@H](C)C6)cc5)C4)C3)cc2)CCN1 [Example 133, 4-([(1S,2S)-6-Chloro-4-cyano-2-[(R)-3-methylpiperazin-1-yl]-2,3-dihydro-1H-inden-1-yl]oxy)-N—[(R)-1-(20-[(R)-3-([4-([(1S,2S)-6-chloro-4-cyano-2-[(R)-3-methylpiperazin-1-yl]-2,3-dihydro-1H-inden-1-yl]oxy)phenyl]sulfonamido)pyrrolidin-1-yl]-7,14-dioxo-3,18-dioxa-6,8,13,15-tetraazaicosyl)pyrrolidin-3-yl]benzenesulfonamide; bis(trifluoroacetic acid)] | – | – | > 70% | < 40% | – | – | 3 | 3 | – | – | – | < 40% | 3 |
| N#Cc1cc(Cl)cc2c1C[C@H](N1CCNCC1)[C@H]2Oc1ccc(S(=O)(=O)N[C@H]2CCN(C(=O)CCCNC(=O)NCCCCNC(=O)NCCCC(=O)N3CC[C@H](NS(=O)(=O)c4ccc(O[C@H]5c6cc(Cl)cc(C#N)c6C[C@@H]5N5CCNCC5)cc4)C3)C2)cc1 [Example 143, 4-([(1S,2S)-6-Chloro-4-cyano-2-(piperazin-1-yl)-2,3-dihydro-1H-inden-1-yl]oxy)-N—[(S)-1-(18-[(S)-3-([4-([(1S,2S)-6-chloro-4-cyano-2-(piperazin-1-yl)-2,3-dihydro-1H-inden-1-yl]oxy)phenyl]sulfonamido)pyrrolidin-1-yl]-6,13,18-trioxo-5,7,12,14-tetraazaoctadecanoyl)pyrrolidin-3-yl]benzenesulfonamide] | – | – | 40 to 70% | < 40% | – | – | 3 | 3 | – | – | – | < 40% | 4 |
